Key:
[1] = test system: Trichinella spiralis larvae; experiment: Trichinella spiralis in-vitro; assay type: cell-based; design: key: 0 means no activity; 1 means weak activity; 2 means good activity; 3 means full activity; details: 5 days at 19° C.
Method: Trichinella spiralis In-vitro
• Test animals: Trichinella spiralis larvae • Solvent: dimethyl sulphoxide
Trichinella spiralis larvae are isolated from skeletal muscles and subcutaneous muscles of SPF/CFW1 mice and collected in aqueous 0.9% NaCl containing 20 μg of sisomycin/ml. Per determination, 20 larvae are incubated in 2 ml of a nutrient solution (20 g of Bacto Casitone/l, 10 g of yeast extract/l, 5 g of glucose/l, 0.8 g of KH2PO4/l, 0.8 g of K2HPO4; […] of sisomycin/ml and 1 μg of Canesten/ml; pH=7.2).
The incubation and the determination have been described in Martin et al., Pesticide Science (1996) 48, 343-349. 10 mg of the test compound are dissolved in 0.5 ml of the stated solvent, and such an amount of the resulting solution is added to the incubation medium that the desired concentration is reached. The controls contain only the solvent.
After an incubation time of 5 days at a temperature of 19° C., the experiment is terminated. The anthelmintic activity of a substance is categorized into 4 stages. 0 means no activity, 1 means weak activity, 2 means good activity and 3 means full activity (<50%, 50-75%, >75%, 100% of the larvae dead).

[2] = test system: adults of Ctenocephalides felis; experiment: Test with cat fleas/oral uptake; assay type: in vivo; details: after 28 h
Method: Test with Cat Fleas/Oral Uptake
• Test animals: adults of Ctenocephalides felis • Solvent: dimethyl sulphoxide (DMSO)
To produce a suitable formulation, a suitable solution of active compound is prepared from 20 mg of active compound and 1 ml of DMSO. 15 μl of this formulation are added to 3 ml of citrated cattle blood and stirred.
10 unfed adult fleas (Ctenocephalides felis, strain “Georgi”) are placed into a chamber (Ø3.2 cm) whose top and bottom are closed with gauze. A metal cylinder whose underside is covered with parafilm is placed onto the chamber. The cylinder contains 3 ml of blood/active compound formulation which can be taken up by the fleas through the parafilm membrane. Whereas the blood is warmed to 37° C., the temperature in the area of the flea chambers is adjusted to 25° C. Controls are mixed with the same volume of DMSO, without addition of a compound. The determinations are carried out in triplicate.
After 28 h, the mortality in % (=dead fleas) is determined.
Compounds which effect an at least 25% kill of the fleas within 28 h are judged to be effective.

Lucilia cuprina larvae = experiment: Blowfly larvae test (development-inhibitory action); assay type: in vivo
Method: Blowfly Larvae Test (Development-Inhibitory Action)
• Test animals: Lucilia cuprina larvae • Solvent: dimethyl sulphoxide
(§1) 20 mg of active compound are dissolved in 1 ml of dimethyl sulphoxide, more dilute concentrations are prepared by dilution with distilled water.
About 20 Lucilia cuprina larvae are introduced into a test tube which contains about 1 cm^3 of horse meat and 0.5 ml of the preparation of active compound to be tested. After 24 hours and 48 hours, the efficacy of the preparation of active compound is determined. The test tubes are transferred into a beaker whose bottom is covered with sand. After a further 2 days, the test tubes are removed and the pupae are counted.
The efficacy of the preparation of active compound is assessed by the number of flies that have hatched after 1.5 times the period of development of an untreated control. 100% means that no flies have hatched; 0% means that all flies have hatched normally.

[3] = test system: Boophilus microplus resistant (SP-resistant Parkhurst strain); experiment: Test with Boophilus microplus resistant (SP-resistant Parkhurst strain), injection, oviposition of fertile eggs; assay type: in vivo
Method: (§2) Test with Boophilus Microplus Resistant (SP—Resistant Parkhurst Strain)
(§3) • Test animals: adult females which have sucked themselves full • Solvent: dimethyl sulphoxide
20 mg of active compound are dissolved in 1 ml of dimethyl sulphoxide, more dilute concentrations are prepared by dilution in the same solvent.
The test is carried out in 5 replications. 1 μl of the solutions is injected into the abdomen, and the animals are transferred into dishes and kept in a climatized room. After 7 days, the activity is checked by examination for oviposition of fertile eggs. Eggs whose fertility is not visible from the outside are stored in glass tubes in a controlled-environment cabinet until the larvae have hatched. An activity of 100% means that no tick has produced any fertile eggs.

[4] = test system: Meloidogyne incognita egg/larvae; experiment: Meloidogyne test; assay type: in vivo; details: active compound concentration 20 ppm; lettuce
Method: • Solvent: 8 parts by weight of acetone • Emulsifier: 1 part by weight of alkylaryl polyglycol ether
To produce a suitable preparation of active compound, 1 part by weight of active compound is mixed with the stated amounts of solvent and emulsifier, and the concentrate is diluted with water to the desired concentration.
Containers are filled with sand, solution of active compound, Meloidogyne incognita egg/larvae suspension and lettuce seeds. The lettuce seeds germinate and the plants develop. On the roots, galls are formed.
After the desired period of time, the nematicidal action is determined in % using gall formation as a measure. 100% means that no galls were found; 0% means that the number of galls on the treated plants corresponds to that of the untreated control.

logP (pH2) = assay type: physicochemical
[5] = test system: larvae of the mustard beetle (Phaedon cochleariae); experiment: Phaedon larvae test; assay type: in vivo; details: active compound concentration 0.1%; after 7 days
Method: (§4) • Solvent: 30 parts by weight of dimethylformamide • Emulsifier: 1 part by weight of alkylaryl polyglycol ether
(§5) To produce a suitable preparation of active compound, 1 part by weight of active compound is mixed with the stated amounts of solvent and emulsifier, and the concentrate is diluted with emulsifier-containing water to the desired concentration.
Cabbage leaves (Brassica oleracea) are treated by being dipped into the preparation of active compound of the desired concentration and are populated with larvae of the mustard beetle (Phaedon cochleariae) while the leaves are still moist.
After the desired period of time, the kill in % is determined. 100% means that all beetle larvae have been killed; 0% means that none of the beetle larvae have been killed.

[6] = test system: caterpillars of the army worm (Spodoptera frugiperda); experiment: Spodoptera frugiperda test; assay type: in vivo; details: active compound concentration 0.1%; after 7 days
Method: Spodoptera frugiperda Test
as §4, §5
Cabbage leaves (Brassica oleracea) are treated by being dipped into the preparation of active compound of the desired concentration and are populated with caterpillars of the army worm (Spodoptera frugiperda) while the leaves are still moist.
After the desired period of time, the kill in % is determined. 100% means that all caterpillars have been killed; 0% means that none of the caterpillars have been killed.

[7] = test system: Boophilus microplus resistant (SP-resistant Parkhurst strain); experiment: Test with Boophilus microplus resistant (SP-resistant Parkhurst strain), dipping; assay type: in vivo; details: active compound concentration 100 ppm; dipped for 1 minute
Method: as §2, §3, §1
10 adult Boophilus microplus res. are dipped for 1 minute into the preparation of active compound to be tested. The animals are transferred into plastic beakers and kept in a climatized room, and the kill rate is then determined.
100% means that all ticks have been killed; 0% means that none of the ticks have been killed.

[8] = test system: adult Musca domestica, Reichswald strain (OP, SP, carbamate-resistant); experiment: Test with flies (Musca domestica); assay type: in vivo; details: active compound concentration 100 ppm
Method: Test with Flies (Musca domestica)
• Test animals: adult Musca domestics, Reichswald strain (OP, SP, carbamate-resistant) • Solvent: dimethyl sulphoxide
as §1
2 ml of this active compound preparation are pipetted onto filter paper discs (Ø9.5 cm) in petri dishes of corresponding dimensions. After the filter discs have been dried, 25 test animals are transferred into the petri dishes, which are then covered.
After 1, 3, 5, 24 and 48 hours, the activity of the active compound preparation is determined. 100% means that all flies have been killed; 0% means that none of the flies have been killed.

[9] = test system: peach aphid (Myzus persicae); experiment: Myzus test; assay type: in vivo; details: active compound concentration 0.1%; after 6 days
Method: as §4, §5
Cabbage leaves (Brassica oleracea) which are heavily infested by the peach aphid (Myzus persicae) are treated by being dipped into the preparation of active compound of the desired concentration.
After the desired period of time, the kill in % is determined. 100% means that all aphids have been killed; 0% means that none of the aphids have been killed.

[10] = test system: greenhouse red spider mite (Tetranychus urticae); experiment: Tetranychus test (OP-resistant/dip treatment); assay type: in vivo; details: active compound concentration 0.1%; after 7 days
Method: Tetranychus Test (OP-Resistant/Dip Treatment)
as §4, §5
Bean plants (Phaseolus vulgaris) which are heavily infested by all stages of the greenhouse red spider mite (Tetranychus urticae) are dipped into a preparation of active compound of the desired concentration.
After the desired period of time, the effect in % is determined. 100% means that all spider mites have been killed; 0% means that none of the spider mites have been killed.

[11] = active compound concentration 100 ppm
[12] = active compound concentration 20 ppm
[13] = 0.8 μg per animal, injection, after 7 days
[14] = 4 μg per animal, injection, after 7 days
[15] = 20 μg per animal, injection, after 7 days
[16] = active compound concentration 4 ppm, injection, after 7 days
[17] = active compound concentration 20 ppm, injection, after 7 days

Row | Structure (SMILES) | anthelmintic activity class (larvae dead) [1, 11] | kill (mortality) [2, 12] [%] | kill (mortality) [2, 11] [%] | kill (no flies hatched) (Lucilia cuprina larvae; [11]) [%] | kill (no fertile eggs) [3, 13] [%] | kill (no fertile eggs) [3, 14] [%] | kill (no fertile eggs) [3, 15] [%] | kill (no fertile eggs) [3, 11] [%] | logP (pH2) (logP (pH2)) | kill (no fertile eggs) [3, 16] [%] | kill (no fertile eggs) [3, 17] [%] | further results
1 | CC1SC(SCCC=C(F)F)=NS1(=O)=O (racemic) [Example 8] | no activity | 79 | 91 | 100 | 100 | 100 | 100 | 100 |  |  |  | 
2 | O=S1(=O)CSC(SCCC=C(F)F)=N1 [Example 2] |  |  | 100 |  |  |  |  |  | 2.24 | 100 | 100 | nematicidal action (activity) using gall formation as a measure [4]: 100%; kill [5]: 100%; kill [6]: 100%; kill [7]: 90%; kill [8]: 60%; kill [9]: 100%
3 | O=S1(=O)CCCSC(SCCCCC=C(F)F)=N1 [Example 16] | no activity | 89 | 91 |  | 100 | 100 | 100 | 100 |  |  |  | 
4 | O=S1(=O)CCSC(SCCC=C(F)F)=N1 [Example 11] | no activity |  |  |  | 100 | 100 | 100 |  |  |  |  | 
5 | CC1SC(SCCCCC=C(F)F)=NS1(=O)=O (racemic) [Example 10] | no activity | 83 | 95 | 100 | 100 | 100 | 100 | 100 | 3.31 |  |  | 
6 | O=S1(=O)CCCSC(SCCC(F)=C(F)F)=N1 [Example 13] |  |  |  |  | 100 | 100 | 100 |  |  |  |  | 
7 | CC1SC(SCCCCC(F)=C(F)F)=NS1(=O)=O (racemic) [Example 9] |  |  |  |  |  |  |  |  | 3.24 |  |  | 
8 | O=S1(=O)CCSC(SCCCCC=C(F)F)=N1 [Example 6] | no activity | 73 | 95 | 100 | 100 | 100 | 100 | 100 |  |  |  | 
9 | O=S1(=O)CSC(SCCCCC(F)=C(F)F)=N1 [Example 3] |  |  |  | 100 |  |  |  |  | 2.93 | 100 | 100 | anthelmintic activity class (larvae dead) ([1]; active compound concentration 10 ppm): weak activity (1 means weak activity); kill (no flies hatched) (Lucilia cuprina larvae; [12]): 100%
10 | O=S1(=O)CSC(SCCC(F)=C(F)F)=N1 [Example 1, 5-(4,4,3-trifluorobutenylthio)-1,3,4-dithiazoline 3,3-dioxide] |  |  |  | 100 |  |  |  |  |  | 100 | 100 | nematicidal action (activity) using gall formation as a measure [4]: 100%; kill (no flies hatched) (Lucilia cuprina larvae; [12]): 100%; melting point: 50 °C
11 | O=S1(=O)CSC(SCCCCC=C(F)F)=N1 [Example 4] | no activity |  | 100 |  |  |  |  |  | 2.99 | 100 | 100 | kill [10]: 100%; kill [5]: 100%; kill [7]: 100%; kill [8]: 40%; kill [9]: 100%
